# Data: US7135494B2, “Antitumoral carbazoles” (Pharma Mar, S.A., priority 2000, dated 2006)
# Like-named read-outs stand apart in the source and are kept apart here.
# Legend:
# Assay type in all cases: cell-based
# Melanoma (MEL-28) = experiment: SRB colorimetric assay of cell growth and viability, MEL-28; details: Homo sapiens, SK-MEL-28, 24 wells/16 mm, 10,000 cells/72 h, read-out: IC50 (concentration that causes 50% growth inhibition)
# Method: (§1) Biological tests were carried out on coproverdine (the compound of Example 1 of the present application). A colorimetric type of assay, using sulforhodamine B (SRB) reaction, was used to provide a quantitative measurement of cell growth and viability. The technique described by Skehan, et al., J Natl. Cancer Inst., 1990, 82, 1107, was followed. The reader is also referred to the following references: • Faircloth et al. Journal of Tissue and Culture Methods, 1988, 11, 201. • Monks et al. Articles, 1991, 83, 757. • Mosmann et al. Journal of Immunological Methods, 1983, 65, 55.
# (§2) Further biological tests were carried out on coproverdine using similar methods. The results are given using the following cellular response parameters: GI=growth inhibition, TGI=total growth inhibition (cytostatic effect) and LC=cell killing (cytotoxic effect).
# Prostate (DU-145) = experiment: SRB colorimetric assay of cell growth and viability, DU-145; details: Homo sapiens, 24 wells/16 mm, 10,000 cells/72 h, read-out: IC50 (concentration that causes 50% growth inhibition)
# Method: as §1, §2
# Lung (A-549) = experiment: SRB colorimetric assay of cell growth and viability, A-549
# Method: as §1, §2
# P388 leukemia cell line = experiment: SRB colorimetric assay of cell growth and viability, P388; details: Mus musculus
# Method: as §1, §2
# Colon (HT-29) = experiment: SRB colorimetric assay of cell growth and viability, HT-29
# Method: as §1, §2
# [1] = 96 wells/9 mm, 5,000 cells/48 h
smiles,measurement,setting,value
"COC(=O)c1cccc2c3c(n(O)c12)C(O)(C=O)C=CC3=O (stereo not drawn) [coproverdine, 8-formyl-8,9-dihydroxy-5-oxo-8,9-dihydro-5H-carbazole-1-carboxylic acid methyl ester]",IC50,Melanoma (MEL-28),0.3 µM
same,IC50,Prostate (DU-145),0.3 µM
same,"TGI (total growth inhibition, cytostatic effect)",Lung (A-549); [1],15 µM
same,IC50,"Lung (A-549); Homo sapiens, A549, 24 wells/16 mm, 10,000 cells/72 h, read-out: IC50 (concentration that causes 50% growth inhibition)",0.3 µM
same,GI50,"Lung (A-549); Homo sapiens, A549, 96 wells/9 mm, 5,000 cells/48 h, read-out: GI50 (50% growth inhibition with correction for cell OD at time zero)",7 µM
same,CC50,"Lung (A-549); Homo sapiens, A549, 96 wells/9 mm, 5,000 cells/48 h, read-out: LC50 (50% cell killing, cytotoxic effect)",50 µM
same,IC50,"P388 leukemia cell line; P388, Leukemia (P-388), 24 wells/16 mm, 10,000 cells/72 h, read-out: IC50 (concentration that causes 50% growth inhibition)",1.6 µM
same,IC50,"P388 leukemia cell line; P388 leukemia cell line, first test, read-out: IC50",0.95 µg/mL
same,"TGI (total growth inhibition, cytostatic effect)",Colon (HT-29); [1],16 µM
same,IC50,"Colon (HT-29); Homo sapiens, 24 wells/16 mm, 10,000 cells/72 h, read-out: IC50 (concentration that causes 50% growth inhibition)",0.3 µM
same,GI50,"Colon (HT-29); Homo sapiens, 96 wells/9 mm, 5,000 cells/48 h, read-out: GI50 (50% growth inhibition with correction for cell OD at time zero)",6 µM
same,CC50,"Colon (HT-29); Homo sapiens, 96 wells/9 mm, 5,000 cells/48 h, read-out: LC50 (50% cell killing, cytotoxic effect)",50 µM
